From patent publication US20180313858A1, “QUANTIFICATION OF DRUGS IN BIOLOGICAL SAMPLES” (Indivior UK Limited, priority 2015, published 2018)
Marks after values point to notes of the source that are not given here.

Tests used:
clinical = conditions: human, in vivo
[1] = human, in vivo

With `C=CCN1CC[C@]23c4c5ccc(O)c4O[C@H]2C(=O)CC[C@@]3(O)[C@H]1C5` [naloxone] as the compound, how does the AUC(0-inf) (clinical) read?
The AUC(0-inf) was 0.0772 ng·h/mL.

What about the AUC(0-t) (clinical) of the same compound?
The AUC(0-t) was 0.0681 ng·h/mL.

What about the Cmax (clinical) of the same compound?
The Cmax was 0.0266 ng/mL.

And the Tmax (clinical)?
Its Tmax is 45 min.

What about the plasma concentration [1] of the same compound?
The plasma concentration was 0.068 ng/mL.

And the “t1/2 (apparent terminal half-life)” value [1]?
Its value is 2.21 (61.1)^f h.

And the “time for which analyte was quantifiable in plasma” value [1]?
The value was 36 h.
